This note sets out measurements from patent EP0155871A1, “Compounds possessing inhibiting properties in the lignin formation in plants and process for the reduction of their lignin content” (Etablissement Public dit: CENTRE NATIONAL DE LA RECHERCHE …, priority 1984, dated 1985).

Read-outs that look alike come from different tables or passages of the source.

Type in all cases: biochemical
Assay [1] deals with T1, CAD de peuplier (Populus deltoides, UniProt P31657).
T1 construct: la CAD de peuplier isolée selon la méthode deSARNI et al; from tissue
T1 sequence (P31657 1-357): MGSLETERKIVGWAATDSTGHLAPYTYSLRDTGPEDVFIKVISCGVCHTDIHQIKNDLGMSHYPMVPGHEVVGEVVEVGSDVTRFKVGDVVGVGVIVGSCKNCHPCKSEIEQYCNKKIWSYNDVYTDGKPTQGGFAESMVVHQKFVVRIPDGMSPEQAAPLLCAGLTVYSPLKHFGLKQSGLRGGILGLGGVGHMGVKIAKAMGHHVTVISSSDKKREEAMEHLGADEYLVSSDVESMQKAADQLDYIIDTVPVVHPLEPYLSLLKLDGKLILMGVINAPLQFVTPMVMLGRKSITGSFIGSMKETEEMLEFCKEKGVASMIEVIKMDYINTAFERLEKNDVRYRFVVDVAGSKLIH
The assay can be described thus: in vitro inhibition of isolated poplar CAD. Conditions: 0,250mM; sens physiologique, réduction de l'aldéhyde coniférylique, 340 nm, pH 6,5; read-out: inhibition à 0,250mM.

Assay [2] has as its target T1, CAD de peuplier. Nature of the assay: in vitro inhibition of isolated poplar CAD. From the text: On rapporte dans le tableau suivant les résultats obtenus concernant l'effet mesuré in vitro d'inhibiteurs selon l'invention à différentes concentrations vis-à-vis de la CAD de peuplier isolée selon la méthode deSARNI et al, dans, EUROP JOURNAL OF BIOCHEMISTRY,139, P.259-265, 1984.
Les mesures des trois derniers résultats ont été réalisées dans le sens physiologique c'est-à-dire en suivant la réduction de l'aldéhyde coniférylique(oxydation du […] mesurée à 340 nm).
Cette inhibition mesurée in vitro dans le sens physiologique (pH 6,5) est 10 à 15 fois plus importante que dans le sens inverse, c'es-t-à-dire alcool→ aldéhyde (pH 8,8).

The subject of assay [3] is anhydrase carbonique (CA). Nature of the assay: action on plant zinc enzyme carbonic anhydrase. From the text: (§1) L'étude de leur action sur différentes enzymes a également été réalisée.
(§2) On a étudié ainsi l'action d'inhibiteurs selon l'invention sur des enzymes du métabolisme phénolique telles que la phénylalanine ammonialyase (PAL), la catéchol O-méthyl transférase (OMT), l'hydroxycinnamate : CoA ligase (HCl) et la cinnamoyl : CoA réductase (CCR), et des enzymes végétales à zinc, telles que l'éthanol déshydrogénase (EDH), la superoxyde dismutase (SOD) et l'anhydrase carbonique (CA).

For assay [4], the system named is éthanol déshydrogénase (EDH). Nature of the assay: action on plant zinc enzyme EDH.
Text: as §1, §2

For assay [5], the system named is cinnamoyl : CoA réductase (CCR). The assay can be described thus: action on phenolic metabolism enzyme CCR.
Text: as §1, §2

The subject of assay [6] is phénylalanine ammonialyase (PAL). Nature of the assay: action on phenolic metabolism enzyme PAL.
Text: as §1, §2

In assay [7] the target is T2, CAD (Populus deltoides, UniProt P31657).
T2 construct: from tissue
T2 sequence (P31657 1-357): T1 sequence (P31657 1-357)
The assay can be described thus: reversibility of CAD inhibition by dialysis of the enzyme-inhibitor mixture. The following applies: 2 mM; dialysis against tampon tris/HCl 0,1 M, pH 7,5, 14 heures, 4°C. From the text:
L'étude des modalités d'action des inhibiteurs de l'invention montre la réversibilité de leur action.

The subject of assay [8] is superoxyde dismutase (SOD). The assay can be described thus: action on plant zinc enzyme SOD.
Text: as §1, §2

The mark [9] stands for this setting: 2mM, not among the results measured in the physiological direction, read-out: Inhibition % à 2mM.

For `COc1cc(C=CC(=O)N2CCSC2=S)ccc1O` [FMT], the inhibition at 250 µM in assay [1] came to 100%.
On to `COc1cc(C=CC(=O)OC(C)(C)C)cc(OC)c1O` [STB, Sinapate de tertiobutyle], for which the inhibition at 2000 µM in assay [2] (setting [9]) was 55%.
Regarding `COc1cc(C=CC(=O)OC(C)(C)C)ccc1O` [FTB, férulate de tertiobutyle], the inhibition at 250 µM in assay [1] came out at 100%. Besides, in assay [3], the “action sur l'AC” value was “n'agit pas”. Further, in assay [4], the “action sur l'EDH” value is given as “n'agit pas”. Also, the “action vis à vis de la CCR” value in assay [5] is “actif”. Moreover, the inhibition at 2000 µM is 75% in assay [2] (setting [9]) and approximately 75% in assay [2] (text restatement of the table value (2mM), read-out: taux d'inhibition). Also, in assay [6], the “action vis à vis de la PAL” value was “actif”. Moreover, in assay [7], the “activité de CAD après dialyse” value is on record as “restitution totale de l'activité CAD”. The “action sur la SOD” value in assay [8] is recorded as “n'agit pas”.
For `CC(C)(C)OC(=O)C=Cc1ccc(O)cc1` [PCB, p-Coumarate de tertiobutyle], the inhibition at 2000 µM in assay [2] (setting [9]) turned out to be 40%.
